Results reported in patent US7514582B2, “2′-substituted 1,1′-biphenyl-2-carboxamides, processes for their preparation, their use as medicaments, and pharmaceutical preparations comprising them” (Sanofi-Aventis Deutschland GmbH, priority 1999, dated 2009).

Tested on: not given
Assay: not given

Row | melting point | Compound
1 | 145 °C | O=C(NCCc1ccccc1)c1ccccc1-c1ccccc1CNS(=O)(=O)c1cccc(C(F)(F)F)c1 [Example 3 a, 2′-(3-Trifluoromethylphenylsulfonylaminomethyl)biphenyl-2-carboxylic acid phenethylamide]
2 | 145 °C | CC(=O)c1ccc(S(=O)(=O)NCc2ccccc2-c2ccccc2C(=O)NCCc2ccccc2)cc1 [Example 3 b, 2′-(4-Acetylphenylsulfonylaminomethyl)biphenyl-2-carboxylic acid phenethylamide]
3 | 145 °C | O=C(NCCc1ccccc1)c1ccccc1-c1ccccc1CNS(=O)(=O)c1cccc([N+](=O)[O-])c1 [Example 3 c, 2′-(3-Nitrophenylsulfonylaminomethyl)biphenyl-2-carboxylic acid phenethylamide]
4 | 154 °C | O=C(NCCc1ccccc1)c1ccccc1-c1ccccc1CNS(=O)(=O)c1ccccc1 [Example 3 d, 2′-(Phenylsulfonylaminomethyl)biphenyl-2-carboxylic acid phenethylamide]
5 | 153 °C | O=C(NCCc1ccccc1)c1ccccc1-c1ccccc1CNS(=O)(=O)c1cccc(F)c1 [Example 3 e, 2′-(3-Fluorophenylsulfonylaminomethyl)biphenyl-2-carboxylic acid phenethylamide]
6 | 163 °C | CCc1ccc(S(=O)(=O)NCc2ccccc2-c2ccccc2C(=O)NCCc2ccccc2)cc1 [Example 3 f, 2′-(4-Ethylphenylsulfonylaminomethyl)biphenyl-2-carboxylic acid phenethylamide]
7 | 126 °C | O=C(NCc1ccccc1)c1ccccc1-c1ccccc1CNS(=O)(=O)c1cccc(C(F)(F)F)c1 [Example 3 g, 2′-(3-Trifluoromethylphenylsulfonylaminomethyl)biphenyl-2-carboxylic acid benzylamide]
8 | 182 °C | CC(=O)c1cccc(S(=O)(=O)NCc2ccccc2-c2ccccc2C(=O)NCc2ccccc2)c1 [Example 3 h, 2′-(3-Acetylphenylsulfonylaminomethyl)biphenyl-2-carboxylic acid benzylamide]
9 | 175 °C | O=C(NCc1ccccc1)c1ccccc1-c1ccccc1CNS(=O)(=O)c1cccc([N+](=O)[O-])c1 [Example 3 i, 2′-(3-Nitrophenylsulfonylaminomethyl)biphenyl-2-carboxylic acid benzylamide]
10 | 162 °C | O=C(NCc1ccccc1)c1ccccc1-c1ccccc1CNS(=O)(=O)c1ccccc1 [Example 3 j, 2′-(3-Phenylsulfonylaminomethyl)biphenyl-2-carboxylic acid benzylamide]
11 | 147 °C | O=C(NCc1ccccc1)c1ccccc1-c1ccccc1CNS(=O)(=O)c1cccc(F)c1 [Example 3 k, 2′-(3-Fluorophenylsulfonylaminomethyl)biphenyl-2-carboxylic acid benzylamide]
12 | 127 °C | CC(C)CCNC(=O)c1ccccc1-c1ccccc1CNS(=O)(=O)c1ccccc1 [Example 3 l, 2′-(Phenylsulfonylaminomethyl)biphenyl-2-carboxylic acid (3-methyl butyl)amide]
13 | 149 °C | CC(C)CCNC(=O)c1ccccc1-c1ccccc1CNS(=O)(=O)c1ccc(F)cc1 [Example 3 m, 2′-(4-Fluorophenylsulfonylaminomethyl)biphenyl-2-carboxylic acid (3-methylbutyl)amide]

Row | Compound | melting point
14 | CC(C)CCNC(=O)c1ccccc1-c1ccccc1CNC(=O)OCc1ccccc1 [Example 2 b, 2′-(Benzyloxycarbonylaminomethyl)biphenyl-2-carboxylic acid (3-methylbutyl)amide] | 112 °C

Molecular target: T1, Kv1.5 channels from humans (Homo sapiens, UniProt P22460)
T1 construct: expressed in transfected cells; host or cells: Xenopus laevis oocytes injected with in vitro synthesized RNA
Assay: Kv1.5 currents in Xenopus oocytes, two-microelectrode voltage clamp
Assay type: cell-based
Experimental: Kv1.5 channels from humans were expressed in Xenopus oocytes. For this, oocytes from Xenopus laevis were first isolated and defolliculated. RNA encoding Kv1.5 synthesized in vitro was then injected into these oocytes. After Kv1.5 protein expression for 1-7days, Kv1.5 currents were measured on the oocytes using the two-microelectrode voltage clamp technique. The Kv1.5 channels were in this case as a rule activated using voltage jumps to 0 mV and 40 mV lasting 500 ms. The bath was rinsed with a solution of the following composition: NaCl 96 mM, KCl 2 mM, CaCl2 1.8 mM, MgCl2 1 mM, HEPES 5 mM (titrated with NaOH to pH 7.4). These experiments were carried out at room temperature. The following were employed for data acquisition and analysis: Genedamp amplifier (Axon Instruments, Foster City, USA) and MacLab D/A converter and software (AD Instruments, Castle Hill, Australia). The substances according to the invention were tested by adding them in different concentrations to the bath solution. The effects of the substances were calculated as the percentage inhibition of the Kv1.5 control current which was obtained when no substance was added to the solution. The data were then extrapolated using the Hill equation in order to determine the inhibitory concentration IC50 for the respective substances.

T1 sequence (P22460 whole entry): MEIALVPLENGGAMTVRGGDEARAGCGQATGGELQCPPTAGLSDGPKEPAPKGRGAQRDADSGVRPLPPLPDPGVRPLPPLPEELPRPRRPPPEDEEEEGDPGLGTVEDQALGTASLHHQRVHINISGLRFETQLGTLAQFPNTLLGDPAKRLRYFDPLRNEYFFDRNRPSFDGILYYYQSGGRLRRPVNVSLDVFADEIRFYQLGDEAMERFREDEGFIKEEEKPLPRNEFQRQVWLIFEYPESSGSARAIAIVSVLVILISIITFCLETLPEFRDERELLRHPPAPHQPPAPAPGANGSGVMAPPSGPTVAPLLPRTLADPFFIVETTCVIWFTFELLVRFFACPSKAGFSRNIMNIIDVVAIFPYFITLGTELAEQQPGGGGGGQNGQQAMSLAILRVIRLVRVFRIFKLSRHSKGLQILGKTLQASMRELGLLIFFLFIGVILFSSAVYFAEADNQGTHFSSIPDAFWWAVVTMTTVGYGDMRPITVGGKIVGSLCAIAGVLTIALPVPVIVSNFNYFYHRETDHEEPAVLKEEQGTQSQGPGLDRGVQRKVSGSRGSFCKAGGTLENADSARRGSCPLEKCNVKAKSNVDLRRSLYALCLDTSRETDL

Row | Compound | IC50
15 | Cc1cccc(S(=O)(=O)NCc2ccccc2-c2ccccc2C(=O)N[C@@H](Cc2ccccc2)C(N)=O)c1 [12 f] | 11300 nM
16 | CC(C)C[C@H](NC(=O)c1ccccc1-c1ccccc1CNC(=O)OCc1ccccc1)C(=O)Nc1ccccc1 [13 b] | ~3000 nM
17 | CC(C)C[C@H](NC(=O)c1ccccc1-c1ccccc1CNC(=O)OCc1ccccc1)C(=O)NCc1ccccc1 [13 c] | 1400 nM
18 | CC(C)C[C@H](NC(=O)c1ccccc1-c1ccccc1CNC(=O)OCc1ccccc1)C(=O)NCC(F)(F)F [13 d] | 500 nM
19 | CC(C)CCNC(=O)[C@H](CC(C)C)NC(=O)c1ccccc1-c1ccccc1CNC(=O)OCc1ccccc1 [13 e] | 2800 nM
20 | COc1ccc(C(=O)NCc2ccccc2-c2ccccc2C(=O)N[C@@H](CC(C)C)C(=O)NCC(F)(F)F)cc1 [13 f] | 3400 nM
21 | CC(C)C[C@H](NC(=O)c1ccccc1-c1ccccc1CNC(=O)CCc1ccccc1)C(=O)NCC(F)(F)F [13 g] | 1100 nM
22 | COc1ccc(S(=O)(=O)NCc2ccccc2-c2ccccc2C(=O)N[C@@H](CC(C)C)C(=O)NCC(F)(F)F)cc1 [13 h] | 1400 nM
23 | CC(C)NC(=O)C(Cc1ccccn1)NC(=O)c1ccccc1-c1ccccc1CNC(=O)OCc1ccccc1 (stereo not drawn) [13 i] | 1200 nM
24 | Cc1ccccc1CCC(=O)NCc1ccccc1-c1ccccc1C(=O)NCc1ccc(F)cc1F [14 a] | 3600 nM
25 | O=C(CCc1ccc(F)cc1)NCc1ccccc1-c1ccccc1C(=O)NCc1ccc(F)cc1F [14 b] | 2700 nM
26 | O=C(CCc1ccc(O)cc1)NCc1ccccc1-c1ccccc1C(=O)NCc1ccc(F)cc1F [14 d] | 2000 nM
27 | COc1ccc(CCC(=O)NCc2ccccc2-c2ccccc2C(=O)NCc2ccc(F)cc2F)cc1 [14 e] | 800 nM
28 | O=C(CCc1ccc(F)c(F)c1)NCc1ccccc1-c1ccccc1C(=O)NCc1ccc(F)cc1F [14 f] | 2500 nM
29 | COc1ccc(-c2ccccc2CNC(=O)OC(C)(C)C)c(C(=O)NCCC(C)C)c1 [15 b] | 3100 nM
30 | CC(C)CCNC(=O)c1cc(O)ccc1-c1ccccc1CNC(=O)OCc1ccccc1 [16 b] | 5200 nM
31 | CC(C)CCNC(=O)c1ccccc1-c1ccccc1[C@@H](C)NC(=O)OCc1ccccc1 [17 c] | 2100 nM
32 | CC(C)CCNC(=O)c1ccccc1-c1ccccc1[C@H](C)NC(=O)OCc1ccccc1 [17 d] | 1300 nM
33 | CC(C)CCNC(=O)c1ccccc1-c1ccccc1[C@H](C)NC(=O)O[C@@H](C)c1ccccc1 [17 e] | 1800 nM
34 | CC(C)CCC(=O)NCc1ccccc1-c1ccccc1C(=O)NCC1CC1 [18 a] | 7200 nM
35 | COCCCNC(=O)c1ccccc1-c1ccccc1CNC(=O)OCc1ccccc1 [18 aa] | 400 nM
36 | COc1ccc(CC(=O)NCc2ccccc2-c2ccccc2C(=O)NC(C)CC(C)C)cc1 (stereo not drawn) [18 ab] | 1100 nM
37 | CC[C@@H](C)OC(=O)NCc1ccccc1-c1ccccc1C(=O)NCc1cccc(C)n1 [18 ac] | 10000 nM
38 | COc1ccc(CC(=O)NCc2ccccc2-c2ccccc2C(=O)NCc2nc3ccccc3[nH]2)cc1 [18 af] | 5800 nM
39 | O=C(NCc1ccccc1-c1ccccc1C(=O)NCc1nc2ccccc2[nH]1)OCc1ccccc1 [18 ah] | 2100 nM
40 | CN(C)c1ccc(CNC(=O)c2ccccc2-c2ccccc2CNC(=O)OCc2ccccc2)cc1 [18 ai] | 6600 nM
41 | C[C@H](CC(=O)NCc1ccccc1-c1ccccc1C(=O)NCC1CC1)c1ccccc1 [18 b] | 400 nM
42 | CC(C)CCNC(=O)c1ccccc1-c1ccccc1CNC(=O)COc1ccccc1 [18 c] | 4200 nM
43 | CC(C)CCNC(=O)c1ccccc1-c1ccccc1CNC(=O)C[C@@H](C)c1ccccc1 [18 d] | 400 nM
44 | CC(C)CCC(=O)NCc1ccccc1-c1ccccc1C(=O)NCc1ccc(F)cc1F [18 e] | 1700 nM

Further lines, results first:

Row | IC50 | Compound
45 | 1300 nM | C[C@H](CC(=O)NCc1ccccc1-c1ccccc1C(=O)NCc1ccncc1)c1ccccc1 [18 f]
46 | 3900 nM | CCC(C)CC(=O)NCc1ccccc1-c1ccccc1C(=O)NCc1ccccn1 (stereo not drawn) [18 g]
47 | 800 nM | C[C@H](CC(=O)NCc1ccccc1-c1ccccc1C(=O)NCCc1ccncc1)c1ccccc1 [18 h]
48 | 400 nM | C[C@H](CC(=O)NCc1ccccc1-c1ccccc1C(=O)NCCc1cccnc1)c1ccccc1 [18 i]
49 | 700 nM | Cc1cccc(CNC(=O)c2ccccc2-c2ccccc2CNC(=O)C[C@@H](C)c2ccc([N+](=O)[O-])cc2)n1 [18 j]
50 | 3000 nM | O=C(Cc1ccc(F)cc1)NCc1ccccc1-c1ccccc1C(=O)Nc1ccc(F)cc1 [18 k]
51 | 2100 nM | CCCC(C)OC(=O)NCc1ccccc1-c1ccccc1C(=O)NCC1CC1 (stereo not drawn) [18 m]
52 | 400 nM | C[C@H](O)CNC(=O)c1ccccc1-c1ccccc1CNC(=O)O[C@@H](C)c1ccccc1 [18 n]
53 | 3600 nM | CC(C)CCNC(=O)c1ccccc1-c1ccccc1CNC(=O)OCC1CC1 [18 o]
54 | 3200 nM | O=C(NCc1ccccc1-c1ccccc1C(=O)NCc1cccnc1)OCCc1ccccc1 [18 q]
55 | 900 nM | C[C@H](OC(=O)NCc1ccccc1-c1ccccc1C(=O)NCCc1cccnc1)c1ccccc1 [18 s]
56 | 1100 nM | O=C(Cc1ccc(F)cc1)NCc1ccccc1-c1ccccc1C(=O)NCc1ccc(F)cc1F [18 u]
57 | 5400 nM | O=C(Cc1ccc(O)cc1)NCc1ccccc1-c1ccccc1C(=O)NCc1ccc(F)cc1F [18 w]
58 | 4600 nM | COc1ccc(CC(=O)NCc2cccc(C)c2-c2c(C)cccc2C(=O)NCCC(C)C)cc1 [18 x]
59 | 1900 nM | COc1ccc(CC(=O)NCc2ccccc2-c2ccccc2C(=O)NCCCOC(C)C)cc1 [18 y]
60 | 1200 nM | COc1ccc(CC(=O)NCc2ccccc2-c2ccccc2C(=O)NC2CCCC2)cc1 [18 z]
